# Test results as given in paper PMC9353555, “Hemoclot Thrombin Inhibitor Assay and Expected Peak-Trough Levels of Dabigatran: A Multicenter Study” (Frontiers in Cardiovascular Medicine, 2022).
# Read-outs that look alike come from different tables or passages of the source.
# How the values were obtained:
# [1] = Plasma dabigatran concentration and pharmacokinetics by HPLC-MS/MS; format: in vivo, human; settings: healthy subjects, single dose 150 mg; for AUC(0-t): 150 mg
# Procedure: The venous blood samples were collected 0 h and post-dose at 16–19 time points in 3.0 ml EDTA-K2 tubes and centrifuged at 4°C for 10 min at 3,000 g. The plasma samples were stored at –80°C until analysis.
# The total anti-thrombin effect from dabigatran etexilate is a result of dabigatran (alone) and dabigatran acylglucuronides. An assay for total dabigatran (the sum of free dabigatran and the contribution from dabigatran acylglucuronides) in plasma is developed, validated and applied ([21], [22]). Thus, dabigatran concentrations were determined by validated HPLC-MS/MS assays at Shimadzu 30 series, API 6500 (Applied Biosystems, Inc., American). The standard calibration curves with good linearity were built for dabigatran within the concentration range of 1.0–300.0 ng/mL, and the lower limit of quantitation (LOQ) was 1.0 ng/mL. The precision (% CV), intra-batch accuracy and inter-batch accuracy were within 6.2–9.2, 90.3–104.3, and 94.6–103.8%, respectively. PK parameters were analyzed by non-compartmental methods using Phoenix Win-Non-lin 7.0 (A Certara™ Company, Princeton, NJ, United States). Cmax (Maximum concentration) and Tmax (the time to Cmax) were obtained from the observed data, while terminal half-life (t1/2), plasma concentration vs. time from 0 to the last measurable time point (AUC0–t) were calculated.
# (§1) For detecting pharmacodynamics (PD) parameters, the sampling times were 0, 2, 8, 12 h after dabigatran administration respectively. In patients’ population, plasma sample obtained longer than 10 h after the previous dose was considered for trough concentration; average 2.0 h (range: 1.0–3.0 h) post dose was considered for peak concentration. The reference detection range refers to plasma dabigatran concentrations between the 2.5th and 97.5th percentiles of all values determined by HPLC-MS/MS.
# [2] = parameters: method as in PMID 23718677; settings: dabigatran 150 mg, American population; cited from earlier work
# PT = experiment: Prothrombin time (PT) coagulation assay after dabigatran; format: in vivo, human; settings: for PT-peak / PT-0 h / PT-trough: NVAF patients, 110 mg bid, target range 10.1–12.6 s; for PT-peak: peak (1.0–3.0 h post dose); for PT-0 h: pre-dose; for PT-trough: trough (>10 h after previous dose)
# Procedure: as §1
# (§2) Blood samples were collected via 2.7 ml sodium citrate tubes, then centrifuged for 15 min at 2,500 g at room-temperature. The plasma samples were stored at –70°C within 6 months until analysis.
# (§3) Pharmacodynamic assessment was performed at a centralized facility in Peking University First Hospital. The HTI, PT, and APTT were measured on Sysmex CS-2100i (Sysmex, Kobe, Japan). PT and APTT were tested using Coagulation Method Assay Kits (Thromborel-S® and Actin®, Marburg, Germany). The normal reference range for the PT and APTT assays used in this study are 10.1–12.6 s for PT and 26.9–37.6 s for APTT. Concentration detection is divided into two standard curves, one is suitable for normal and slightly high concentration range, another one is suitable for low concentration range. When the concentration is below 120 ng/ml, the low concentration standard curve is switched to obtain a more accurate concentration value. […] PD assessment was all performed in our hospital.
# APTT = experiment: Activated partial thromboplastin (APTT) coagulation assay after dabigatran; format: in vivo, human; settings: for APTT-peak / APTT-0 h / APTT-trough: NVAF patients, 110 mg bid, target range 26.9–37.6 s; for APTT-peak: peak (1.0–3.0 h post dose); for APTT-0 h: pre-dose; for APTT-trough: trough (>10 h after previous dose)
# Procedure: as §1, §2, §3
# [3] = Hemoclot thrombin inhibitor (HTI) assay of plasma dabigatran concentration; format: in vivo, human; settings: for HTI-peak: peak (1.0–3.0 h post dose); for HTI-trough: trough (>10 h after previous dose)
# Procedure: as §1, §2, §3
# [4] = 183 patients, 110 mg bid, HTI assay, about 500 blood samples
# [5] = NVAF patients, 110 mg bid, HTI-derived concentration
# [6] = NVAF patients, 110 mg bid, HTI-derived concentration, listed as dabigatran
smiles,measurement,setting,value
[H]/N=C(/N)c1ccc(NCc2nc3cc(C(=O)N(CCC(=O)O)c4ccccn4)ccc3n2C)cc1 [Dabigatran],C–2 h,"[1]; 2 h, HPLC-MS/MS, mean ± SD",85.51 ± 73.77 ng/mL
same,C–8 h,"[1]; 8 h, HPLC-MS/MS, mean ± SD",57.60 ± 23.46 ng/mL
same,C–12 h,"[1]; 12 h, HPLC-MS/MS, mean ± SD",36.40 ± 3.15 ng/mL
same,Cmax,[1]; mean ± SD,0.13999 ± 0.05561 µg/mL
same,reference detection range,[1]; 2.5th to 97.5th percentiles of plasma concentrations by HPLC-MS/MS,33 to 159 ng/mL
same,AUC(0-t),"[1]; human, plasma, oral, mean ± SD, read-out: AUC0–12",1.29 ± 0.442 µg·h/mL
same,AUC(0-t),"[1]; human, plasma, oral, mean ± SD, read-out: AUC0–t",1.25 ± 0.442 µg·h/mL
same,concentration at 0 h,"[1]; human, plasma, oral, 0 h (pre-dose), HPLC-MS/MS, mean ± SD, read-out: C–0 h",0 µg/mL
same,concentration at 2 h,"[1]; human, plasma, oral, 2 h, HPLC-MS/MS, mean ± SD, read-out: C–2 h",0.0855 µg/mL
same,concentration at 8 h,"[1]; human, plasma, oral, 8 h, HPLC-MS/MS, mean ± SD, read-out: C–8 h",0.0576 µg/mL
same,concentration at 12 h,"[1]; human, plasma, oral, 12 h, HPLC-MS/MS, mean ± SD, read-out: C–12 h",0.0364 µg/mL
same,Tmax,"[1]; human, plasma, oral, mean ± SD",3.61 ± 2.09 h
same,half-life,"[1]; human, plasma, oral, mean ± SD",8.78 ± 1.33 h
same,reference detection range,[2],27 to 411 ng/mL
same,PT-peak,PT,14.04 ± 3.50 s
same,PT-peak,PT; listed as dabigatran,14.04 s
same,PT-0 h,PT,15.58 ± 5.90 s
same,PT-0 h,PT; listed as dabigatran,15.58 s
same,PT-trough,PT,13.79 ± 6.15 s
same,PT-trough,PT; listed as dabigatran,13.79 s
same,PT–0 h,"PT; healthy subjects, single dose 150 mg, 0 h (pre-dose), reference range 10.1–12.6 s",11.74 ± 1.88 s
same,PT–2 h,"PT; healthy subjects, single dose 150 mg, 2 h, reference range 10.1–12.6 s",12.83 ± 1.58 s
same,PT–8 h,"PT; healthy subjects, single dose 150 mg, 8 h, reference range 10.1–12.6 s",12.44 ± 1.31 s
same,PT–12 h,"PT; healthy subjects, single dose 150 mg, 12 h, reference range 10.1–12.6 s",11.97 ± 0.92 s
same,APTT-peak,APTT,47.89 ± 4.43 s
same,APTT-peak,APTT; listed as dabigatran,47.89 s
same,APTT-0 h,APTT,36.47 ± 8.40 s
same,APTT-0 h,APTT; listed as dabigatran,36.47 s
same,APTT-trough,APTT,39.08 ± 9.74 s
same,APTT-trough,APTT; listed as dabigatran,39.08 s
same,APTT–0 h,"APTT; healthy subjects, single dose 150 mg, 0 h (pre-dose), reference range 26.9–37.6 s",27.78 ± 3.50 s
same,APTT–2 h,"APTT; healthy subjects, single dose 150 mg, 2 h, reference range 26.9–37.6 s",39.69 ± 10.69 s
same,APTT–8 h,"APTT; healthy subjects, single dose 150 mg, 8 h, reference range 26.9–37.6 s",38.52 ± 6.00 s
same,APTT–12 h,"APTT; healthy subjects, single dose 150 mg, 12 h, reference range 26.9–37.6 s",35.22 ± 5.37 s
same,expected peak levels range,[3]; [4],95 to 196 ng/mL
same,expected trough levels range,[3]; [4],36 to 92 ng/mL
same,HTI-peak,[3]; [5],145.57 ± 50.16 ng/mL
same,HTI-peak,[3]; [6],145.57 ng/mL
same,HTI-0 h,"[3]; NVAF patients, 110 mg bid, pre-dose, HTI-derived concentration",4.06 ± 2.92 ng/mL
same,HTI-trough,[3]; [5],63.74 ± 27.95 ng/mL
same,HTI-trough,[3]; [6],63.74 ng/mL
same,HTI–2 h,"[3]; healthy subjects, single dose 150 mg, 2 h, HTI-derived concentration",88.89 ± 79.08 ng/mL
same,HTI–8 h,"[3]; healthy subjects, single dose 150 mg, 8 h, HTI-derived concentration",61.91 ± 27.46 ng/mL
same,HTI–12 h,"[3]; healthy subjects, single dose 150 mg, 12 h, HTI-derived concentration",40.00 ± 16.63 ng/mL
same,concentration at 0 h,"[3]; human, plasma, oral, NVAF patients, 110 mg bid, pre-dose, HTI-derived concentration",0.00406 µg/mL
same,concentration at 0 h,"[3]; human, plasma, oral, healthy subjects, single dose 150 mg, 0 h (pre-dose), HTI-derived concentration",0.00299 ± 0.00237 µg/mL
same,concentration at 2 h,"[3]; human, plasma, oral, healthy subjects, single dose 150 mg, 2 h, HTI-derived concentration",0.0889 µg/mL
same,concentration at 8 h,"[3]; human, plasma, oral, healthy subjects, single dose 150 mg, 8 h, HTI-derived concentration",0.0619 µg/mL
same,concentration at 12 h,"[3]; human, plasma, oral, healthy subjects, single dose 150 mg, 12 h, HTI-derived concentration",0.04 µg/mL
